Data from patent US20190069576A1, “Solid Form Nutrient Compositions” (Railsplitter Feed Technology, Inc., priority 2016, published 2019).

System: infant pigs
Test: Hemoglobin measurement of pigs treated with granular materials or iron dextran injections
Assay type: in vivo, pig
Description: In Example 6, four litters of pigs were provided granular product (sample numbers 272 and 280). These litters were offered these granular products ad litum from birth to 21 days of birth. Two litters were not offered granular material, but were instead injected with iron dextran on day 3 after birth with 1 cc of 200 mg of iron dextran. Two other litters, also not offered granular material, were injected twice, once on day 3, and once on day 10 after birth. Each injection was a 1 cc injection of 200 mg of iron dextran.
The National Research Council in the Nutrient Requirement of Swine publication recommends that levels of iron dextran providing more than 200 mg per pig in one injection be avoided. Many producers provide a second injection to minimize the deficiency which doubles the cost of preventing anemia in young pigs, and increases the probability of spreading pathogens with needles.
Hemoglobin analysis is an excellent way to quantitate the adequacy of iron for the pig but the treatment differences are obvious by just viewing the litters.
A striking difference between healthy hemoglobin adequate pigs and anemic pigs is the color of the skin. This is most obvious in white pigs, and most pigs in US have some white color in their breed lineage. Pigs with hemoglobin values above 10 gm per 100 ml. have extremely bright, pink skin, while anemic pigs have very pale almost white color of the skin.

[1] = 1 injection, day 3, 1 cc of 200 mg, first litter (12 pigs)
[2] = 1 injection, second litter (10 pigs)
[3] = 2 injections, day 3 and day 10, each 1 cc of 200 mg, first litter (7 pigs)
[4] = 2 injections, second litter (11 pigs)

For iron dextran, the “Pigs <10 gm % (hemoglobin)” value [1] was 10, the “Pigs >10 gm % (hemoglobin)” value [1] was 2 and the “Pigs <10 gm % (hemoglobin)” value [2] was 4. For the same substance, the “Pigs >10 gm % (hemoglobin)” value [2] was 6, the “% with adequate Hemoglobin” value (1 injection, total of 22 pigs) was 36% and the “Pigs <10 gm % (hemoglobin)” value (1 injection, total of 22 pigs) was 14. For the same substance, the “Pigs >10 gm % (hemoglobin)” value (1 injection, total of 22 pigs) was 8, the “Pigs <10 gm % (hemoglobin)” value [3] was 2 and the “Pigs >10 gm % (hemoglobin)” value [3] was 5. For the same substance, the “Pigs <10 gm % (hemoglobin)” value [4] was 2, the “Pigs >10 gm % (hemoglobin)” value [4] was 9 and the “% with adequate Hemoglobin” value (2 injections, total of 18 pigs) was 77%. For the same substance, the “Pigs <10 gm % (hemoglobin)” value (2 injections, total of 18 pigs) was 4 and the “Pigs >10 gm % (hemoglobin)” value (2 injections, total of 18 pigs) was 14.
